Results reported in PMC11359702, “Synthesis and Biochemical Evaluation of Ethanoanthracenes and Related Compounds: Antiproliferative and Pro-Apoptotic Effects in Chronic Lymphocytic Leukemia (CLL)” (Pharmaceuticals, 2024).
Where two headings read alike, the source gives them in different places.

What was measured:
[1] = tested on: HG-3 and PGA-1 cell lines; experiment: alamarBlue cell viability assay, mean of both CLL cell lines; assay type: cell-based, human; details: Homo sapiens, CLL cell; mean of HG-3 and PGA-1
PGA-1 cells = experiment: alamarBlue cell viability assay; details: Homo sapiens, 24 h; for IC50: read-out: PGA-1 IC50
HG-3 cells = experiment: alamarBlue cell viability assay; details: Homo sapiens, HG-3, 24 h; for IC50: read-out: HG-3 IC50; for viability at 10 µM: read-out: cell viability, HG-3, 10 µM, 24 h, vehicle = 100%
NCI/ADR-RES = experiment: NCI-60 five-dose assay; assay type: cell-based, human; details: Homo sapiens
Method: (§1) A number of our most promising compounds identified through preliminary cell viability testing (23c, 23d, 23f, 23h, 23l, 23m, 23n, 23o, 24f, 24l, 25n and 26n) were selected for NCI drug screening in the 60-cell-line panel. The panel includes nine subcategories based on cancer tissue types, which include leukemia, ovarian, central nervous system, breast, lung, prostate, skin, renal and colon cancer. The compounds were initially assessed in a one-dose assay at a fixed treatment concentration of 10 µM. The compounds selected for further investigation were progressed to a five-dose assay across the concentration ranges of 0.01, 0.1, 1, 10 and 100 µM [72]. The endpoints assessed in the screening protocol were GI50, TGI and LC50 [72].

MALME-3M = experiment: NCI-60 five-dose assay; assay type: cell-based, human; details: Homo sapiens, Malme-3M
Method: as §1

EKVX = experiment: NCI-60 five-dose assay; assay type: cell-based, human; details: Homo sapiens
Method: as §1

UACC-257 = experiment: NCI-60 five-dose assay; assay type: cell-based, human; details: Homo sapiens
Method: as §1

OVCAR-4 = experiment: NCI-60 five-dose assay; assay type: cell-based, human; details: Homo sapiens
Method: as §1

LOX IMV1 = experiment: NCI-60 five-dose assay; assay type: cell-based, human; details: Homo sapiens
Method: as §1

SF-268 = experiment: NCI-60 five-dose assay; assay type: cell-based, human; details: Homo sapiens
Method: as §1

MDA-MB-435 = experiment: NCI-60 five-dose assay; assay type: cell-based, human; details: Homo sapiens
Method: as §1

COLO205 = experiment: NCI-60 five-dose assay; assay type: cell-based, human; details: Homo sapiens, COLO 205
Method: as §1

NCI-H23 = experiment: NCI-60 five-dose assay; assay type: cell-based, human; details: Homo sapiens
Method: as §1

SK-MEL-28 = experiment: NCI-60 five-dose assay; assay type: cell-based, human; details: Homo sapiens
Method: as §1

KM12 = experiment: NCI-60 five-dose assay; assay type: cell-based, human; details: Homo sapiens
Method: as §1

UACC-62 = experiment: NCI-60 five-dose assay; assay type: cell-based, human; details: Homo sapiens
Method: as §1

MDA-MB-231/ATCC = experiment: NCI-60 five-dose assay; assay type: cell-based, human; details: Homo sapiens
Method: as §1

UO-31 = experiment: NCI-60 five-dose assay; assay type: cell-based, human; details: Homo sapiens
Method: as §1

NCI-H226 = experiment: NCI-60 five-dose assay; assay type: cell-based, human; details: Homo sapiens
Method: as §1

SW-620 = experiment: NCI-60 five-dose assay; assay type: cell-based, human; details: Homo sapiens
Method: as §1

MCF-7 = experiment: NCI-60 five-dose assay; assay type: cell-based, human; details: Homo sapiens, MCF7
Method: as §1

SK-MEL-2 = experiment: NCI-60 five-dose assay; assay type: cell-based, human; details: Homo sapiens
Method: as §1

HCT-116 = experiment: NCI-60 five-dose assay; assay type: cell-based, human; details: Homo sapiens
Method: as §1

A549/ATCC = experiment: NCI-60 five-dose assay; assay type: cell-based, human; details: Homo sapiens
Method: as §1

NCI-H552 = experiment: NCI-60 five-dose assay; assay type: cell-based, human; details: Homo sapiens
Method: as §1

BT-549 = experiment: NCI-60 five-dose assay; assay type: cell-based, human; details: Homo sapiens
Method: as §1

NCI-H460 = experiment: NCI-60 five-dose assay; assay type: cell-based, human; details: Homo sapiens
Method: as §1

HCT-15 = experiment: NCI-60 five-dose assay; assay type: cell-based, human; details: Homo sapiens
Method: as §1

HT29 = experiment: NCI-60 five-dose assay; assay type: cell-based, human
Method: as §1

M14 = experiment: NCI-60 five-dose assay; assay type: cell-based, human; details: Homo sapiens
Method: as §1

TK-10 = experiment: NCI-60 five-dose assay; assay type: cell-based, human; details: Homo sapiens
Method: as §1

U251 = experiment: NCI-60 five-dose assay; assay type: cell-based, human; details: Homo sapiens, U-251
Method: as §1

ACHN = experiment: NCI-60 five-dose assay; assay type: cell-based, human; details: Homo sapiens
Method: as §1

NCI-H332M = experiment: NCI-60 five-dose assay; assay type: cell-based, human; details: Homo sapiens
Method: as §1

OVCAR-8 = experiment: NCI-60 five-dose assay; assay type: cell-based, human; details: Homo sapiens
Method: as §1

HS 578T = experiment: NCI-60 five-dose assay; assay type: cell-based, human; details: Homo sapiens
Method: as §1

CAKI-1 = experiment: NCI-60 five-dose assay; assay type: cell-based, human; details: Homo sapiens
Method: as §1

HCT-2998 = experiment: NCI-60 five-dose assay; assay type: cell-based, human; details: Homo sapiens
Method: as §1

A498 = experiment: NCI-60 five-dose assay; assay type: cell-based, human; details: Homo sapiens
Method: as §1

K-562 = experiment: NCI-60 five-dose assay; assay type: cell-based, human
leukemia cell panel = experiment: NCI-60 five-dose assay, leukemia cell panel mean; assay type: cell-based, human; details: Homo sapiens; mean across the six leukemia cell lines
RPMI-8226 = experiment: NCI-60 five-dose assay; assay type: cell-based, human
melanoma cell lines = experiment: NCI-60 five-dose assay, melanoma cell lines; assay type: cell-based, human; details: Homo sapiens; range over melanoma cell lines
Method: as §1

MOLT-4 = experiment: NCI-60 five-dose assay; assay type: cell-based, human
breast cancer cell lines = experiment: NCI-60 five-dose assay, breast cancer cell lines; assay type: cell-based, human; details: Homo sapiens; range over breast cancer cell lines
Method: as §1

[2] = tested on: NCI 60 cancer cell line panel; experiment: NCI-60 five-dose assay, full-panel means; assay type: cell-based; details: Homo sapiens
Method: as §1

**Q.** How did the IC50 [1] turn out when `O=C(C=CC12c3ccccc3C(c3ccccc31)C1C(=O)NC(=O)C12)c1ccc(Br)cc1` (stereo not drawn) [Compound 23a, 9-(E)-3-(4-Bromophenyl)-3-oxoprop-1-en-1-yl)-9,10-dihydro-9,10-[3,4]epipyrroloanthracene-12,14-dione] was run?
**A.** 2330 nM

**Q.** And the IC50 (PGA-1 cells)?
**A.** 1970 nM

**Q.** And the viability at 10 µM (PGA-1 cells; read-out: cell viability)?
**A.** 3%

**Q.** What about the IC50 (HG-3 cells) of the same compound?
**A.** 2690 nM

**Q.** And the viability at 10 µM (HG-3 cells)?
**A.** 0.5%

**Q.** Which results are given for `O=C(C=CC12c3ccccc3C(c3ccccc31)C1C(=O)N(c3ccc(Cl)cc3)C(=O)C12)c1ccccn1` (stereo not drawn) [Compound 25n, (E)-13-(4-Chlorophenyl)-9-(3-oxo-3-(pyridin-2-yl)prop-1-en-1-yl)-9,10-dihydro-9,10-[3,4]epipyrroloanthracene-12,14-dione]?
**A.** IC50 [1]: 1090 nM; GI50 (NCI/ADR-RES): 356 nM; GI50 (MALME-3M): 316 nM; GI50 (EKVX): 491 nM; GI50 (UACC-257): 496 nM; GI50 (OVCAR-4): 764 nM; GI50 (LOX IMV1): 194 nM; GI50 (SF-268): 699 nM; GI50 (MDA-MB-435): 298 nM; GI50 (COLO205): 1160 nM; GI50 (NCI-H23): 446 nM; GI50 (SK-MEL-28): 455 nM; GI50 (KM12): 344 nM; GI50 (UACC-62): 400 nM; GI50 (MDA-MB-231/ATCC): 463 nM; GI50 (UO-31): 208 nM; GI50 (NCI-H226): 293 nM; GI50 (SW-620): 299 nM; GI50 (MCF-7): 326 nM; GI50 (SK-MEL-2): 670 nM; GI50 (HCT-116): 212 nM; GI50 (A549/ATCC): 390 nM; GI50 (NCI-H552): 331 nM; GI50 (BT-549): 295 nM; GI50 (NCI-H460): 241 nM; GI50 (HCT-15): 213 nM; GI50 (HT29; Homo sapiens, HT-29, HT29): 335 nM; IC50 (HT29; chemoresistant HT-29 human colorectal adenocarcinoma cell line): 335 nM; GI50 (M14): 344 nM; GI50 (TK-10): 1460 nM; GI50 (U251): 358 nM; GI50 (ACHN): 299 nM; GI50 (NCI-H332M): 821 nM; GI50 (OVCAR-8): 409 nM; GI50 (HS 578T): 458 nM; GI50 (CAKI-1): 1070 nM; GI50 (HCT-2998): 335 nM; GI50 (A498): 539 nM; GI50 (K-562; Homo sapiens, K562, K-562): 290 nM; GI50 (K-562; K-562): 293 nM; GI50 (leukemia cell panel): 290 nM; GI50 (RPMI-8226; Homo sapiens, RPMI-8226, RPMI-8226): 250 nM; GI50 (RPMI-8226; RPMI-8226): 252 nM; GI50 (melanoma cell lines): 194 to 1080 nM; GI50 (MOLT-4; Homo sapiens, MOLT-4, MOLT-4): 320 nM; GI50 (MOLT-4; MOLT-4): 366 nM; GI50 (breast cancer cell lines): 295 to 627 nM; GI50 ([2]; heatmap Figure 8, concentration in molar, read-out: Log 10 GI-50 Mean (converted)): 389 nM; IC50 ([2]; heatmap Figure 8, concentration in molar, read-out: Log 10 IC-50 Mean (converted)): 741 nM; CC50 ([2]; heatmap Figure 8, concentration in molar, read-out: Log 10 LC-50 Mean (converted)): 41700 nM; GI50 ([2]; mean over NCI 60 cell line panel, read-out: Mean GI50 (MID GI50, full-panel mean-graph mid-point)): 245 nM; CC50 ([2]; mean over NCI 60 cell line panel, read-out: Mean LC50 (MID LC50)): 18600 nM; IC50 (PGA-1 cells): 870 nM; viability at 1 µM (PGA-1 cells; read-out: cell viability): 25%; viability at 10 µM (PGA-1 cells; read-out: cell viability): 7%; IC50 (HG-3 cells): 1310 nM; viability at 1 µM (HG-3 cells; read-out: cell viability, HG-3, 1 µM, 24 h, vehicle = 100%): 30%; viability at 10 µM (HG-3 cells): 2%
